Results from patent US11834414B2, “1-methyl-4-[(4-phenylphenyl)sulfonylmethyl]cyclohexyanol and 1-methyl-4-[[4-(2-pyridyl)phenyl]sulfonylmethyl]cyclohexanol compounds and their therapeutic use” (Modern Biosciences Limited, priority 2018, dated 2023).
Entries after “also recorded” stand apart in the source; their conditions may differ.

Test: Metabolite identification in rats
Format: in vivo, Han Wistar rats
Conditions: rat, 1 mg/kg intravenous, up to 24 hours
Method: The formation of metabolites in rats was assessed to determine the propensity of the compounds to form a biaryl metabolite.
The corresponding sulfonamide compounds (for example, reference compound HMC-C-01-A) give rise to a sulphonamide metabolite which is persistent and has a long half-life. In addition, the biaryl sulphonamide metabolite acts as an inducer of metabolism in rats, which may complicate the assessment of toxicity in rodents. Therefore, the lower the propensity to form a biaryl sulphonamide metabolite, the greater the potential suitability of the compound for development for human use.
Plasma samples from Han Wistar rats, aged 8-12 weeks, were collected from animals dosed with test compound. Test compounds at a dose of 1 mg/kg were administered intravenously as a solution in 5% NMP, 5% Solutol HS, and 90% normal saline. Animals were given free access to food throughout the study. Blood samples were taken under light isoflurane anaesthesia at 12 time points following an intravenous dose (0.033, 0.1, 0.167, 0.25, 0.5, 1, 2, 4, 6, 8, 12, and 24 hours). The blood samples were collected from a set of three rats at each time point in labelled micro centrifuge tube containing K2EDTA as anticoagulant. Plasma samples were separated by centrifugation of whole blood.
All samples were processed for analysis by protein precipitation using acetonitrile and analysed with a fit-for-purpose LC-MS/MS method.
At the completion of the study, the results were expressed as detection of the metabolite and time course of formation.

Q: For `C[C@]1(O)CC[C@H](NS(=O)(=O)c2ccc(-c3ccc(Cl)cc3C#N)cc2)CC1` [HMC-C-01-A, reference compound], which “formation of biaryl sulphonamide metabolite (MET-001) in plasma” value is on record?
A: formed in large quantities and accumulated over time; also recorded: in large quantities (which accumulated over time)
